Molecular target: cloned human glucagon receptor (Homo sapiens (Human), UniProt P47871)
Assay: Glucagon Receptor (hGlucR) Binding Assay
Protocol: The hGlucuR cDNA is subcloned into the expression plasmid phD (Trans-activated expression of fully gamma-carboxylated recombinant human protein C, an antithrombotic factor. Grinnell, B. W., Berg, D. T., Walls, J. and Yan, S. B. Bio/Technology 5: 1189-1192 (1987)). This plasmid DNA is transfected into 293 HEK cells and selected with 200 μg/mL Hygromycin.
Crude plasma membranes are prepared using cells from suspension culture. The cells are lysed on ice in hypotonic buffer containing 25 mM Tris HCL, pH 7.5, 1 mM MgCl2, DNAse1, 20 u/mL, and Roche Complete Inhibitors-without EDTA. The cell suspension is homogenized with a glass dounce homogenizer using a Teflon pestle for 25 strokes. The homogenate is centrifuged at 4 degrees C. at 1800×g for 15 mins. The supernate is collected and the pellet is resuspended in hypotonic buffer and rehomogenized. The mixture is centrifuged at 1800×g for 15 mins. The second supernate is combined with the first supernate. The combined supernates are recentrifuged at 1800×g for 15 mins to clarify. The clarified supernate is transferred to high speed tubes and centrifuged at 25000×g for 30 minutes at 4 degrees C. […]
The binding buffer contains 25 mM Hepes, pH 7.4, 2.5 mM CaCl2, 1 mM MgCl2, 0.1% fatty acid free BSA, (ICN), 0.003% tween-20, and Roche Complete Inhibitors without EDTA. […] Plates are read with a MicroBeta after 14 hours of settling time at room temp. […]

cloned human glucagon receptor, sequence (P47871 26-477): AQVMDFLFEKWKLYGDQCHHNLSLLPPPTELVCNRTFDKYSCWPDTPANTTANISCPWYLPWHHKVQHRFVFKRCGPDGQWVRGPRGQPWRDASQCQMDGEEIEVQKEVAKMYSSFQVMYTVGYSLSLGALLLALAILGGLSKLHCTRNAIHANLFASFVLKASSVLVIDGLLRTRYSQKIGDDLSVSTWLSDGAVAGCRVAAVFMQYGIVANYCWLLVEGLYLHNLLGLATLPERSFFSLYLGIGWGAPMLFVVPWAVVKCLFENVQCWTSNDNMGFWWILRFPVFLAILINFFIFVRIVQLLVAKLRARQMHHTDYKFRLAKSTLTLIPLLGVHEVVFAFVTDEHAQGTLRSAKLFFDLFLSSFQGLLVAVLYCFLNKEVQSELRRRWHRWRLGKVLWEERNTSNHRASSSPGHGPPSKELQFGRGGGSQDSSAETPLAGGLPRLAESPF

Compound: Cc1cc(OC(CCC(C)(C)C)c2ccc(C(=O)Nc3nnn[nH]3)cc2)cc(C)c1-c1ccc(C(F)(F)F)cc1 (stereo not shown)
- Ki: 93.3 nM

— patent US8691856B2 (Eli Lilly and Company, priority 2005, dated 2014)
